Patent US9914732B2, “Diazabicyclo[4.3.1]decane derivatives for treatment of psychiatric disorders” (Max-Planck-Gesellschaft zur Forderung der Wissenschaften …, priority 2014, dated 2018)

What was measured:
N2a cells = assay: N2a cellular assay (neurite outgrowth); format: cell-based; details: N2a neuroblastoma cells, FIG. 1
Protocol: FK506 analogs have repeatedly been described as neuroprotective and […] agents in the prior arts.
Example 12: N2a Cellular Assay
At day one N2a cells were plated into 24-well plates with cover slips (pretreated with polylysine) at a density of 35,000 cells/well and cultured with DMEM (incl. FCS 10% and Pen/Strep 1%) for 24 h. Next, cells were transfected with 80 ng expression plasmids encoding Venus as well as 720 ng pRK5 (mock transfection) in a total volume of 500 μl starvation media containing different concentrations of compounds or DMSO for 36 h (media without FCS; induction of neurite outgrowth). Therefore media was removed and replaced by 400 μl DMEM (empty). Next an equivalent volume of plasmids were given to 50 μl OPTIMEM and incubated for 5 min at RT. Additionally 1.5 μl Lipofectamine 2000 was separately dissolved in 50 μl OPTIMEM. After 5 min both solutions (plasmids and Lipofectamine 2000 containing media) were combined and incubated again for another 20 min. After that 100 μl of this mixture was given to 400 μl media per well. (See also protocol of the provider—Life Technologies).
On the next day cells were washed with PBS and incubated for 30 min with 300 μl PFA (4%) and sucrose (5%) to fix cells. After fixation cells were washed three times, mounted onto microscope slides using 4 μl Vectashield (mounting media) and analyzed by fluorescence microscopy. […]

FKBP52 = biological target: T1, FKBP52 (Homo sapiens, UniProt Q02790); assay: Fluorescence polarization (FP) assay, binding to the FK506-binding domain of FKBP52; details: FK506-binding domain of FKBP52 (FKBP52FK1), competition with fluorescent ligand 2b
T1 sequence (Q02790 50-138 limits assumed): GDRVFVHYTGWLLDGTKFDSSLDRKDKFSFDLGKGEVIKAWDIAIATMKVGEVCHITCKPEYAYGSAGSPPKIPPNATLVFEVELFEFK
In short: (§1)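 Competitive FP with fluorescent ligand 2b at 20 nM (2× concentration) and FK1 domain at 280 nM (FKBP51) or 400 nM (FKBP52) in 20 mM HEPES pH 8, 0.01% Triton-X100. Anisotropy read after 30 min at room temperature (ex 485, em 535 nm), in duplicate; IC50 by four-parameter fit, Ki via Wang competitive equation.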

FKBP51 = biological target: T2, FKBP51 (Homo sapiens, UniProt Q13451); assay: Fluorescence polarization (FP) assay, binding to the FK506-binding domain of FKBP51; details: FK506-binding domain of FKBP51 (FKBP51FK1), competition with fluorescent ligand 2b
T2 sequence (Q13451 42-130 limits assumed): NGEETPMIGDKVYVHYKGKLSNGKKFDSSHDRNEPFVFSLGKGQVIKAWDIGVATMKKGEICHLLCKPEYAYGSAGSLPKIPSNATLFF
In short: as §1

Compound | neurite outgrowth (N2a cells) | Ki (FKBP52) | Ki (FKBP51)
COc1ccc(OCCN2C[C@H]([C@H](O)CO)C3CCCC(C2=O)N3S(=O)(=O)c2cc(Cl)cc(Cl)c2)cc1OC (stereo partly drawn) [Compound C2a, (1S,5S,6R)-10-((3,5-dichlorophenyl)sulfonyl)-5-(1,2-dihydroxyethyl)-3-(2-(3,4-dimethoxyphenoxy)ethyl)-3, 10-diazabicyclo[4.3.1]decan-2-one] | potently enhanced neurite outgrowth |  | 
C#CCN1C[C@H](COC)[C@H]2CCC[C@@H](C1=O)N2S(=O)(=O)c1cc(Br)cc(C(=O)OC)c1 [Compound N11, methyl 3-bromo-5-(((1S,5S,6R)-5-(methoxymethyl)-2-oxo-3-(prop-2-yn-1-yl)-3,10-diazabicyclo[4.3.1]decan-10-yl)sulfonyl)benzoate] |  | 100 to 500 nM | 100 to 500 nM
C=CC1CN(Cc2ccccn2)C(=O)C2CCCC1N2S(=O)(=O)c1cc(Cl)cc(Cl)c1 (stereo in doubt) [Compound J4, (1S,5R,6R)-10-((3,5-dichlorophenyl)sulfonyl)-3-(pyridin-2-ylmethyl)-5-vinyl-3,10-diazabicyclo[4.3.1]decan-2-one] |  | 100 to 500 nM | 100 to 500 nM
COCCO[C@H]1CN(CCOC)C(=O)[C@@H]2CCC[C@H]1N2S(=O)(=O)c1cc(Cl)cc(Cl)c1 [Compound H2.1, (1S,5S,6R)-10-((3,5-dichlorophenyl)sulfonyl)-5-(2-methoxyethoxy)-3-(2-methoxyethyl)-3,10-diazabicyclo[4.3.1]decan-2-one] |  | 100 to 500 nM | 100 to 500 nM
C=CC1CN(CC(=O)O)C(=O)C2CCCC1N2S(=O)(=O)c1cc(Cl)cc(Cl)c1 (stereo in doubt) [Compound J10, 2-((1S,5R,6R)-10-((3,5-dichlorophenyl)sulfonyl)-2-oxo-5-vinyl-3,10-diazabicyclo[4.3.1]decan-3-yl)acetic acid] |  | 100 to 500 nM | 100 to 500 nM
C=CC1CN(CC(N)=O)C(=O)C2CCCC1N2S(=O)(=O)c1cc(Cl)cc(Cl)c1 (stereo in doubt) [Compound J11, 2-((1S,5R,6R)-10-((3,5-dichlorophenyl)sulfonyl)-2-oxo-5-vinyl-3,10-diazabicyclo[4.3.1]decan-3-yl)acetamide] |  | 100 to 500 nM | 100 to 500 nM
COc1ccc(OCCN2C[C@H](CCO)[C@H]3CCC[C@@H](C2=O)N3S(=O)(=O)c2cc(Cl)cc(Cl)c2)cc1OC [Compound D8, (1S,5S,6R)-10-((3,5-dichlorophenyl)sulfonyl)-3-(2-(3,4-dimethoxyphenoxy)ethyl)-5-(2-hydroxyethyl)-3,10-diazabicyclo[4.3.1]decan-2-one] |  | ≤ 100 nM | ≤ 100 nM
COc1ccc(OCCN2CCC3CCCC(C2=O)N3S(=O)(=O)c2cc(Cl)c(O)c(Cl)c2)cc1OC (centres unmarked) [Ref. 3, reference compound] |  | 1000 to 5000 nM | 1000 to 5000 nM
C=CC1CN(Cc2ccccn2)C(=O)C2CCCC1N2S(=O)(=O)c1nc2ccccc2[nH]1 (stereo in doubt) [Compound K29, (1S,5R,6R)-10-((1H-benzo[d]imidazol-2-yl)sulfonyl)-3-(pyridin-2-ylmethyl)-5-vinyl-3,10-diazabicyclo[4.3.1]decan-2-one] |  | ≤ 100 nM | ≤ 100 nM
COc1ccc(OCCN2CCC3CCCC(C2=O)N3S(=O)(=O)c2cc(Cl)cc(Cl)c2)cc1OC (centres unmarked) [Ref. 1, reference compound] |  | 1000 to 5000 nM | 1000 to 5000 nM
COCCN1C[C@H](C(C)(C)O)[C@H]2CCC[C@@H](C1=O)N2S(=O)(=O)c1cc(Cl)cc(Cl)c1 [Compound B3, (1S,5S,6R)-10-((3,5-dichlorophenyl)sulfonyl)-5-(2-hydroxypropan-2-yl)-3-(2-methoxyethyl)-3,10-diazabicyclo[4.3.1]decan-2-one] |  | ≤ 100 nM | ≤ 100 nM
C=C[C@@H]1CN(Cc2ccccn2)C(=O)[C@@H]2CCC[C@H]1N2S(=O)(=O)c1ccc2[nH]c(=O)sc2c1 [Compound K4, 6-(((1S,5R,6R)-2-oxo-3-(pyridin-2-ylmethyl)-5-vinyl-3,10-diazabicyclo[4.3.1]decan-10-yl)sulfonyl)benzo[d]thiazol-2(3H)-one] |  | ≤ 100 nM | ≤ 100 nM
C=CC1CN(Cc2ccccn2)C(=O)C2CCCC1N2S(=O)(=O)c1ccc(-c2ncccn2)cc1 (stereo in doubt) [Compound K28, (1S,5R,6R)-3-(pyridin-2-ylmethyl)-10-((4-(pyrimidin-2-yl)phenyl)sulfonyl)-5-vinyl-3,10-diazabicyclo[4.3.1]decan-2-one] |  | ≤ 100 nM | ≤ 100 nM
O=C1NCCC2CCCC1N2S(=O)(=O)c1ccc2sc(=O)[nH]c2c1 (centres unmarked) [Ref. 4, reference compound] |  | > 5000 nM | > 5000 nM
C=C[C@@H]1CN(Cc2ccccn2)C(=O)[C@@H]2CCC[C@H]1N2S(=O)(=O)c1ccc(-c2ccccc2)nc1 [Compound K27, (1S,5R,6R)-10-((6-phenylpyridin-3-yl)sulfonyl)-3-(pyridin-2-ylmethyl)-5-vinyl-3,10-diazabicyclo[4.3.1]decan-2-one] |  | 100 to 500 nM | 100 to 500 nM
